From paper PMC9919513, “A Practical Approach to Bicyclic Carbamoyl Pyridones with Application to the Synthesis of HIV-1 Integrase Strand Transfer Inhibitors” (Molecules, 2023) come the findings set out here.

The structures appear in SMILES notation.

The nature of this data set: in vitro. The conditions noted are these: human, HOS cells, 48 h; read-out: CC50, cytotoxic concentration resulting in 50% reduction in the level of ATP. The data set is classed as cell-based. Here is the method: Human embryonic kidney cell culture cell line 293 was acquired from the American Type Culture Collection (ATCC). The human osteosarcoma cell line, HOS, was obtained from Dr. Richard Schwartz (Michigan State University, East Lansing, MI, USA) and grown in Dulbecco’s modified Eagle’s medium (Invitrogen, Carlsbad, CA, USA) supplemented with 5% (v/v) fetal bovine serum, 5% newborn calf serum, and penicillin (50 units/mL) plus streptomycin (50 µg/mL; Quality Biological, Gaithersburg, MD, USA). The transfection vector, pNLNgoMIVR-ΔLUC was made from pNLNgoMIVR-ΔEnv.HSA by removing the HSA reporter gene and replacing it with a luciferase reporter gene between the NotI and XhoI restriction sites. To produce the new IN mutant S230N used in this study, the IN open reading frame was removed from pNLNgoMIVR-ΔENV.LUC by digestion with KpnI and SalI, and the resulting fragment was inserted between the KpnI and SalI sites of pBluescript KS+. Using that construct as the wild-type template, we prepared the following HIV-1 IN mutant S230N using the QuikChange II XL site-directed mutagenesis kit (Agilent Technologies, Santa Clara, CA, USA) protocol. The following sense oligonucleotides were used with matching cognate antisense oligonucleotides (not shown) (Integrated DNA Technologies, Coralville, IA, USA) in the mutagenesis: S230N 5′-[…]-3′. The DNA sequence of the IN mutant S230N construct was verified independently by DNA sequence determination. The mutated IN coding sequences from pBluescript KS+ were then subcloned into pNLNgoMIVR-ΔEnv.LUC (between the KpnI and SalI sites) to produce mutant HIV-1 constructs, which were also checked by DNA sequencing. […]. On the day prior to transfection, 293 cells were plated on 100 mm diameter dishes at a density of 1.5 × 10^6 cells per plate. Next, 293 cells were transfected with 16 µg of pNLNgoMIVR^-ΔLUC and 4 µg of pHCMV-g (obtained from Dr. Jane Burns, University of California, San Diego) using the calcium phosphate method. At approximately 6 h after the calcium phosphate precipitate was added, 293 cells were washed twice with phosphate-buffered saline (PBS) and incubated with fresh media for 48 h. The virus-containing supernatants were then harvested, clarified by low-speed centrifugation, filtrated, and diluted for preparation in antiviral infection assays. On the day prior to the screen, HOS cells were seeded in a 96-well luminescence cell culture plate at a density of 4000 cells in 100 µL per well. On the day of the screen for cellular cytotoxicity determination, cells were treated with compounds from a concentration range of 250 µM to 0.05 µM and then incubated at 37 °C for 48 h. On the day of the screen for antiviral activity infection assays, cells were treated with compounds from a concentration range of 5 µM to 0.0001 µM using 11 serial dilutions and then incubated at 37 °C for 3 h. After compound incorporation and activation in the cell, 100 µL of virus-stock (WT or mutant) diluted to achieve a luciferase signal between 0.2 and 1.5 Relative Luciferase Units (RLUs) was added to each well and further incubated at 37 °C for 48 h. Cellular cytotoxicity was measured by using the ATP Lite Luminescence detection system and monitored by adding 50 µL of cell lysis buffer from the Luminescence ATP detection assay to each well followed by mixing at 700 rpm at room temperature for 5 min using a compact thermomixer. After addition of 50 µL of reconstituted Luminescence ATP detection assay reagent to all wells except for the negative control/background wells, the plates were mixed at 700 rpm at room temperature for 5 min using a compact thermomixer, incubated at room temperature for 20 min to allow time for signal development, and finally, cytotoxicity was determined using the microplate reader. Infectivity was measured by using the Steady-lite plus luminescence reporter gene assay system (PerkinElmer, Waltham, MA, USA). […]

Turning to `O=C(NCc1ccc(F)cc1F)c1cn2ccn(CCCCCCO)c(=O)c2c(O)c1=O` [Compound 6c, N-(2,4-Difluorobenzyl)-9-hydroxy-2-(6-hydroxyhexyl)-1,8-dioxo-1,8-dihydro-2H-pyrido [1,2-a]pyrazine-7-carboxamide], the CC50 was over 250 µM.

For the compound `O=C(NCc1ccc(F)cc1F)c1cn2ccn(CCCCCO)c(=O)c2c(O)c1=O` [Compound 6d, N-(2,4-Difluorobenzyl)-9-hydroxy-2-(5-hydroxypentyl)-1,8-dioxo-1,8-dihydro-2H-pyrido [1,2-a]pyrazine-7-carboxamide], the CC50 was over 250 µM.

On to `O=C(NCc1ccc(F)cc1F)c1cn2ccn(CCCCO)c(=O)c2c(O)c1=O` [Compound 6e, N-(2,4-Difluorobenzyl)-9-hydroxy-2-(4-hydroxybutyl)-1,8-dioxo-1,8-dihydro-2H-pyrido [1,2-a]pyrazine-7-carboxamide], for which the CC50 was over 250 µM.

Turning to `O=C(NCc1ccc(F)cc1F)c1cn2c(c(O)c1=O)C(=O)N(CCCCCCO)CC2` [Compound 7c, N-(2,4-Difluorobenzyl)-9-hydroxy-2-(6-hydroxyhexyl)-1,8-dioxo-1,3,4,8-tetrahydro-2H-pyrido [1,2-a]pyrazine-7-carboxamide], the CC50 was over 250 µM.

For `O=C(NCc1ccc(F)cc1F)c1cn2c(c(O)c1=O)C(=O)N(CCCCO)CC2` [Compound 7e, N-(2,4-Difluorobenzyl)-9-hydroxy-2-(4-hydroxybutyl)-1,8-dioxo-1,3,4,8-tetrahydro-2H-pyrido [1,2-a]pyrazine-7-carboxamide], the CC50 is over 250 µM.
